From publication PMC12434536, “Radiosynthesis and Preclinical Evaluation of a Carbon-11 Labeled Phosphodiesterase 7 Inhibitor for PET Neuroimaging” (ACS Medicinal Chemistry Letters, 2025)

Molecular target: T1, PDE7A (Homo sapiens, UniProt Q13946)
T1 construct: purchased Eurofins Panlabs Discovery Services (contract assay)
Experiment: In vitro inhibitory assay of PDE7A activity
Format: biochemical
Settings: human recombinant enzyme; read-out: inhibitory constant (IC50) toward PDE7A
Experimental: protein-ligand complex were saved and were then loaded into Schrödinger Maestro to generate the ligand interaction plot.
In vitro inhibitory assay to PDE7 of compound 27 and selectivity to other PDEs Functional activity of target compound 27 for inhibition of PDE7A activity and the selectivity over other PDE isozymes (PDE1A/B/C, 2A, 3A/B, 4A/B/C/D, 5A, 8A, 9A, and 10A) were evaluated by Eurofins Panlabs Discovery Services and Reaction Biology Corp., respectively. Human recombinant enzymes were used for the assays. The inhibitory assays were performed and calculated in duplicate at 3 µM. If the inhibition percentage was less than 50%, the assay for half-maximal inhibitory concentration (IC50) value was conducted in […]
CYP450 isoform metabolism and in vitro safety profiling
The inhibitory constant of compound 26 toward cytochrome P450-dependent metabolic pathways was determined for individual CYP isoform (CYP1A2, CYP2C9, CYP2C19, CYP2D6, and CYP3A4). Reference inhibitors were included as positive controls. A 10 µM solution of compound 27 was used for initial screening. If the inhibition percentage was less than 50%, the experiment was stopped. If the inhibition potency was greater than 50%, the gradient concentrations of compound 27 were used for IC 50 determination. The P450 reactions were detected at Ext/Em: 405 nm/460 nm (530 nm/605 nm for CYP2C9) in a […]

T1 sequence (Q13946 whole entry): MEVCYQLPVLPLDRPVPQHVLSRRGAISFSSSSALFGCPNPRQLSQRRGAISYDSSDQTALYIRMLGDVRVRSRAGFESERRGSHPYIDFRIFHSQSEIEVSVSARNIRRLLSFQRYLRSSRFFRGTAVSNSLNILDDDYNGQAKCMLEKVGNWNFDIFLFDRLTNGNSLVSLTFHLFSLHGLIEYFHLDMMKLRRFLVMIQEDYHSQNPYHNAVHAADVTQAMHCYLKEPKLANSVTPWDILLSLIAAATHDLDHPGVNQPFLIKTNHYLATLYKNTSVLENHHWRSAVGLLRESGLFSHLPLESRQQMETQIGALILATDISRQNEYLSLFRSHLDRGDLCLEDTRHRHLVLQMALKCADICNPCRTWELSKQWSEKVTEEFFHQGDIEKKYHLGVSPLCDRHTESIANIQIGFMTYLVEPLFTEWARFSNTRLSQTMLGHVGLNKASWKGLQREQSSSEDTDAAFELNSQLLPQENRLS

COc1ccc(Cl)c2c1C1(CCCCC1)NC(=O)N2 [Compound 27]
IC50: 31 nM
